Source: patent US8604059B2, “Thioxanthene derivatives for the treatment of infectious diseases” (BKG Pharma APS, priority 2009, dated 2013)

Columns and labels:
[1] = test system: S. aureus MRSA clinical isolates; assay: FIC index, synergy with antibiotics (Table 4a); type: cell-based, Staphylococcus aureus; conditions: with Dicloxacillin; 8 MRSA; mean; compound at ¼ of MIC
Protocol: The effect of the compounds was tested according to the methods described in WO2005/105145. In brief, cell growth was tested using the MIC susceptibility tests by use of the microdilution broth method in accordance to the NCCLS Guidelines (NCCLS Guidelines, Methods for Dilution Antimicrobial Susceptibility Tests for Bacteria That Grow Aerobically; Approved Standard, Sixth Edition, Volume 23; Number 2).
The Fractional Inhibitory Concentration (FIC) index were calculated for each compound as described in WO2005/105145. Synergy was defined for Fractional Inhibitory Concentration (FIC) indices less than 0.5
Staphylococcus aureus: 8 (MRSA) in vivo-selected clinical isolates. Resistant to methicillin and beta-lactam antibiotics. Susceptible to teicoplanin chloramphenicol, fosfomycin, netilmicin and vancomycin.

[2] = test system: Candida albicans; assay: Synergy with fluconazole, broth microdilution NCCLS M27-A (Table 10); type: cell-based
Protocol: The isolates were subcultured for 24 h on Sabouraud glucose agar before susceptibility testing. Broth microdilution tests were performed according to NCCLS document M27-A (Ref: National Commitee for Clinical Laboratory Standards. (1997). Reference Method for Broth Dilution Antifungal Susceptibility Testing of Yeasts: Approved Standard M27-A. NCCLS, Wayne, Pa.) Microtitre plates were read spectrophotometrically at 530 nm, after mixing the wells by pipetting to resuspend yeast sediments. […] The Fractional Inhibitory Concentration (FIC) was calculated for the anti-infective agent alone and in combination with compound 3 and 4 (see table 4) as described above. Synergy was defined as a FIC index of <0.5.

For Clc1ccc2c(c1)/C(=C/CCC1CCNCC1)c1ccccc1S2 [Compound 3], which FIC index [1] is on record?
Its FIC index is 0.25.

And the MIC ([2]; Candida albicans, compound alone, read-out: MIC Compound)?
The MIC was 1 µg/mL.

And the FIC index ([2]; in combination with fluconazole)?
The FIC index was 0.28.
